Results from patent US20110144040A1, “Acteoside and acteoside-rich plant extracts for increasing athletic performance in humans” (MN Intellectual Property Corp, LLC, priority 2009, published 2011).

Experiments:
[1] = test system: athletic performance in humans; test: oral acteoside supplementation for athletic performance in exercising humans; assay type: in vivo, human; conditions: peroral, used according to recommended protocols
Source text: Athletic performance is defined as any sporting activity where muscle strength and/or endurance are integral to individual performance, and is inclusive of both aerobic and anaerobic metabolic conditions. This includes active athletic competition, such as baseball, football, running, or Track & Field. It also includes any exercise activity designed to improve physical performance, directly or indirectly, via an improvement in muscle protein content (size), strength, and/or endurance, such as resistance training (circuit equipment, weight training), aerobics, Pilates, and/or calisthenics. Any improvement in athletic performance must include objective increases in speed, strength, muscle size (protein content), and/or endurance. It may also involve improved recovery from fatigue following exercise or athletic competition.
This includes an ability to increase muscle strength, muscle power, endurance, and muscle protein content (size), as well as to reduce fatigue and facilitate recovery following intense exercise or athletic competition. The benefits appear almost immediately in some cases, but are more likely to occur after several weeks of regular use of acteoside or extracts containing acteoside. […]
During the course of developing this invention, an effective oral daily dosage of acteoside to improve athletic performance was determined to be between 25 mg to 2,500 mg. […]

[2] = test system: prostaglandin biosynthesis; conditions: Arch Pharm Res 2006 29(6), 508-13; cited from earlier work
[3] = test system: free-radical induced oxidative stress; conditions: J Pharm Pharmacol 2004 56(6) 743-8; cited from earlier work

For `C[C@@H]1O[C@@H](O[C@@H]2[C@@H](O)[C@H](OCCc3ccc(O)c(O)c3)O[C@H](CO)[C@H]2OC(=O)/C=C/c2ccc(O)c(O)c2)[C@H](O)[C@H](O)[C@H]1O` [acteoside], the improving athletic performance [1] is listed as “effective in-vivo peroral agents for improving athletic performance”, the “inhibition of prostaglandin biosynthesis” value [2] is listed as “strong inhibitor” and the “inhibition of free-radical induced oxidative stress” value [3] is listed as “strong inhibitor”.
